Measured values as given in PubChem BioAssay AID1259407 (Chemical Carcinogenesis Research Information System (CCRIS), 2018).
Activity calls are given as the source filed them. No rule for the calls is given here.

Tested on: CCRIS mutagenicity, Ames/micronucleus/aberration tests
Test: CCRIS mutagenicity studies
[1] = Test System: AMES SALMONELLA TYPHIMURIUM, Strain/Indicator: TA100, Metabolic Activation: NONE, Method: STANDARD PLATE
[2] = Test System: AMES SALMONELLA TYPHIMURIUM, Strain/Indicator: TA1537, Metabolic Activation: NONE, Method: STANDARD PLATE
[3] = Test System: AMES SALMONELLA TYPHIMURIUM, Strain/Indicator: TA98, Metabolic Activation: NONE, Method: PREINCUBATION
[4] = Test System: AMES SALMONELLA TYPHIMURIUM, Strain/Indicator: TA100, Metabolic Activation: NONE, Method: PREINCUBATION
[5] = Test System: AMES SALMONELLA TYPHIMURIUM, Strain/Indicator: TA1535, Metabolic Activation: NONE, Method: PREINCUBATION

SMILES: N#CSCSC#N
- mutagenic call (Test System: AMES SALMONELLA TYPHIMURIUM, Strain/Indicator: TA98, Metabolic Activation: HAMSTER, LIVER, S-9, AROCLOR 1254, Method: STANDARD PLATE): inactive; negative
- mutagenic call (Test System: AMES SALMONELLA TYPHIMURIUM, Strain/Indicator: TA98, Metabolic Activation: NONE, Method: STANDARD PLATE): inactive; negative
- mutagenic call (Test System: AMES SALMONELLA TYPHIMURIUM, Strain/Indicator: TA98, Metabolic Activation: RAT, LIVER, S-9, AROCLOR 1254, Method: STANDARD PLATE): inactive; negative
- mutagenic call (Test System: AMES SALMONELLA TYPHIMURIUM, Strain/Indicator: TA100, Metabolic Activation: HAMSTER, LIVER, S-9, AROCLOR 1254, Method: STANDARD PLATE): inactive; negative
- mutagenic call [1]: inactive; negative
- mutagenic call (Test System: AMES SALMONELLA TYPHIMURIUM, Strain/Indicator: TA100, Metabolic Activation: RAT, LIVER, S-9, AROCLOR 1254, Method: STANDARD PLATE): inactive; negative
- mutagenic call (Test System: AMES SALMONELLA TYPHIMURIUM, Strain/Indicator: TA1535, Metabolic Activation: HAMSTER, LIVER, S-9, AROCLOR 1254, Method: STANDARD PLATE): inactive; negative
- mutagenic call (Test System: AMES SALMONELLA TYPHIMURIUM, Strain/Indicator: TA1535, Metabolic Activation: NONE, Method: STANDARD PLATE): inactive; negative
- mutagenic call (Test System: AMES SALMONELLA TYPHIMURIUM, Strain/Indicator: TA1535, Metabolic Activation: RAT, LIVER, S-9, AROCLOR 1254, Method: STANDARD PLATE): inactive; negative
- mutagenic call (Test System: AMES SALMONELLA TYPHIMURIUM, Strain/Indicator: TA1537, Metabolic Activation: HAMSTER, LIVER, S-9, AROCLOR 1254, Method: STANDARD PLATE): inactive; negative
- mutagenic call [2]: inactive; negative
- mutagenic call (Test System: AMES SALMONELLA TYPHIMURIUM, Strain/Indicator: TA1537, Metabolic Activation: RAT, LIVER, S-9, AROCLOR 1254, Method: STANDARD PLATE): inactive; negative
- mutagenic call (Test System: MOUSE LYMPHOMA, Strain/Indicator: L5178Y (TK+/TK-), Metabolic Activation: RAT, LIVER, S-9, AROCLOR 1254, Method: SUSPENSION/PLATE): inactive; negative. reevaluation of results: negative
- mutagenic call (Test System: Mouse lymphoma, Strain/Indicator: L5178Y (tk+/tk-), Metabolic Activation: None, Method: Suspension/plate): inactive; negative

SMILES: CCNCCN
- mutagenic call [3]: inactive; negative
- mutagenic call (Test System: AMES SALMONELLA TYPHIMURIUM, Strain/Indicator: TA98, Metabolic Activation: RAT LIVER S-9, PHENOBARBITAL AND BETA-NAPHTHOFLAVONE, Method: PREINCUBATION): inactive; negative
- mutagenic call [4]: inactive; negative
- mutagenic call (Test System: AMES SALMONELLA TYPHIMURIUM, Strain/Indicator: TA100, Metabolic Activation: RAT LIVER S-9, PHENOBARBITAL AND BETA-NAPHTHOFLAVONE, Method: PREINCUBATION): inactive; negative
- mutagenic call [5]: inactive; negative
- mutagenic call (Test System: AMES SALMONELLA TYPHIMURIUM, Strain/Indicator: TA1535, Metabolic Activation: RAT LIVER S-9, PHENOBARBITAL AND BETA-NAPHTHOFLAVONE, Method: PREINCUBATION): inactive; negative
- mutagenic call (Test System: AMES SALMONELLA TYPHIMURIUM, Strain/Indicator: TA1537, Metabolic Activation: NONE, Method: PREINCUBATION): inactive; negative
- mutagenic call (Test System: AMES SALMONELLA TYPHIMURIUM, Strain/Indicator: TA1537, Metabolic Activation: RAT LIVER S-9, PHENOBARBITAL AND BETA-NAPHTHOFLAVONE, Method: PREINCUBATION): inactive; negative
- mutagenic call (Test System: AMES SALMONELLA TYPHIMURIUM, Strain/Indicator: TA1538, Metabolic Activation: NONE, Method: PREINCUBATION): inactive; negative
- mutagenic call (Test System: AMES SALMONELLA TYPHIMURIUM, Strain/Indicator: TA1538, Metabolic Activation: RAT LIVER S-9, PHENOBARBITAL AND BETA-NAPHTHOFLAVONE, Method: PREINCUBATION): inactive; negative
- mutagenic call (Test System: E.COLI, Strain/Indicator: WP2UVRA, Metabolic Activation: NONE, Method: PREINCUBATION): inactive; negative
- mutagenic call (Test System: E.COLI, Strain/Indicator: WP2UVRA, Metabolic Activation: RAT LIVER S-9, PHENOBARBITAL AND BETA-NAPHTHOFLAVONE, Method: PREINCUBATION): inactive; negative

SMILES: COP(N)(=O)SC (centres undefined)
- mutagenic call (Test System: Ames Salmonella typhimurium, Strain/Indicator: TA98, Metabolic Activation: None, Method: Preincubation): active; positive
- mutagenic call (Test System: Ames Salmonella typhimurium, Strain/Indicator: TA98, Metabolic Activation: Rat, Liver, S-9 (10%), Aroclor 1254, Method: Preincubation): active; positive
- mutagenic call (Test System: Ames Salmonella typhimurium, Strain/Indicator: TA100, Metabolic Activation: None, Method: Preincubation): inactive; negative
- mutagenic call (Test System: Ames Salmonella typhimurium, Strain/Indicator: TA100, Metabolic Activation: Rat, Liver, S-9 (10%), Aroclor 1254, Method: Preincubation): inactive; negative

SMILES: CC(=O)c1ccncc1
- mutagenic call (End Point: IN VITRO CHROMOSOMAL ABERRATIONS, Test System: CHO-LB CELLS, Metabolic Activation: RAT, LIVER, S-9, AROCLOR 1254): active; positive
- mutagenic call (Test System: AMES SALMONELLA TYPHIMURIUM, Strain/Indicator: TA97, Metabolic Activation: HAMSTER, LIVER, S-9, AROCLOR 1254 (10 OR 30%), Method: PREINCUBATION): inactive; negative
- mutagenic call (Test System: AMES SALMONELLA TYPHIMURIUM, Strain/Indicator: TA97, Metabolic Activation: NONE, Method: PREINCUBATION): inactive; negative
- mutagenic call (Test System: AMES SALMONELLA TYPHIMURIUM, Strain/Indicator: TA97, Metabolic Activation: RAT, LIVER, S-9, AROCLOR 1254 (10 OR 30%), Method: PREINCUBATION): inactive; negative
- mutagenic call (Test System: AMES SALMONELLA TYPHIMURIUM, Strain/Indicator: TA98, Metabolic Activation: HAMSTER, LIVER, S-9, AROCLOR 1254 (10 OR 30%), Method: PREINCUBATION): inactive; negative
- mutagenic call [3]: inactive; negative
- mutagenic call (Test System: AMES SALMONELLA TYPHIMURIUM, Strain/Indicator: TA98, Metabolic Activation: RAT, LIVER, S-9, AROCLOR 1254 (10 OR 30%), Method: PREINCUBATION): inactive; negative
- mutagenic call (Test System: AMES SALMONELLA TYPHIMURIUM, Strain/Indicator: TA100, Metabolic Activation: HAMSTER, LIVER, S-9, AROCLOR 1254 (10 OR 30%), Method: PREINCUBATION): inactive; negative
- mutagenic call [4]: inactive; negative
- mutagenic call (Test System: AMES SALMONELLA TYPHIMURIUM, Strain/Indicator: TA100, Metabolic Activation: RAT, LIVER, S-9, AROCLOR 1254 (10 OR 30%), Method: PREINCUBATION): inactive; negative
- mutagenic call (Test System: AMES SALMONELLA TYPHIMURIUM, Strain/Indicator: TA1535, Metabolic Activation: HAMSTER, LIVER, S-9, AROCLOR 1254 (10 OR 30%), Method: PREINCUBATION): inactive; negative
- mutagenic call [5]: inactive; negative
- mutagenic call (Test System: AMES SALMONELLA TYPHIMURIUM, Strain/Indicator: TA1535, Metabolic Activation: RAT, LIVER, S-9, AROCLOR 1254 (10 OR 30%), Method: PREINCUBATION): inactive; negative

SMILES: c1cnc2c3c(ccc2c1)C1OC1CC3 (centres undefined)
- mutagenic call [1]: inactive; negative

SMILES: O=C1OC(CN2CCOCC2)CN1/N=C/c1ccc([N+](=O)[O-])o1 (centres undefined)
- mutagenic call (Test System: E. COLI, Strain/Indicator: WP2, Metabolic Activation: NONE, Method: SPOT): active; positive
- mutagenic call (Test System: E. COLI, Strain/Indicator: WP2 UVRA, Metabolic Activation: NONE, Method: SPOT): active; positive
- mutagenic call (Test System: E. COLI, Strain/Indicator: WP2 UVRA, Metabolic Activation: NONE, Method: STANDARD PLATE): active; positive

SMILES: N#C/C(=C/C=C/c1ccccc1)c1ccccc1Cl
- mutagenic call [1]: active; positive

SMILES: CN(C)CCNC(=O)c1ccc2ccc3cccnc3c2n1
- mutagenic call [2]: active; positive
